Values of other authors as cited in patent publication US7888378B2, “Thiadiazole compounds and uses thereof” (Mallinckrodt Inc., priority 2006, dated 2011).

System: tumors
Conditions: after administering the substance

SMILES: NCC(=O)CCC(=O)O [delta-aminolevulinic acid]
- uptake of porphyrins in tumors compared to normal tissues: two-fold
